Entries after “also recorded” stand apart in the source; their conditions may differ. Where two headings read alike, the source gives them in different places.
How the values were obtained:
[1] = test system: cNOTCH1‐4sub; assay: Average of cell-based IC50s on cNOTCH1-4sub in H4 cells; design: species or system human; settings: read-out: Average IC50s of each GSI on cNOTCH1‐4sub
Procedure: (§1) Using these cell‐based γ‐secretase cleavage assays, we systematically investigated the substrate inhibition profile of BMS‐906024, MK‐0752, PF‐308414, RO4929097, Semagacestat, and DAPT. We treated H4 cells stably expressing cNOTCH1‐4sub with 4 pM to 10 μM of GSIs (Fig 5A and Table 2) and measured the Aβ‐like peptide secreted into the media.
(§2) For the cell‐based assay, all substrates contain a human NOTCH4 signal peptide sequence ([…]), amyloid β peptide (Aβ1–25/K16A) epitope tag followed by the juxtamembrane region (JMD) of the given substrate and a FLAG tag ([…]) at the COOH‐terminal. K16A mutant was created to decrease potential α‐secretase cleavage. The cDNAs were generated by gene synthesis conducted by Genscript. A schematic representation of the substrates is provided in Fig 4A, and sequences of the cDNAs and the proteins are provided in Appendix Fig S6. For clarity, these substrates are referred to as cell‐based assay substrates (e.g., NOTCH1 is cNOTCH1sub). Substrate cDNAs were cloned into pCDNA3.1 (Invitrogen, Carlsbad, CA, USA) for expression in H4 cells (ATCC, Manassas, VA).
(§3) H4 cells were cultured in Opti‐mem media (Thermo‐Fisher) supplemented with Hyclone 6% fetal bovine serum (GE, Logan, Utah, USA) and 1% penicillin/streptomycin (Life Technologies, Grand Island, NY, USA). pCDNA3.1 plasmids containing the substrate cDNAs were transfected into H4 cells using FuGENE HD reagent (Madison, WI, USA). Stable cell lines were established using G418 selection. […] Cells and conditioned media were used for WB, IP, and ELISA.
(§4) Sandwich ELISAs used for Aβ detection were performed as previously described (Murphy et al, 1999; Ran et al, 2014). Briefly, Aβ and Aβ‐like peptides in conditioned media were captured with Ab5 antibody and detected with horseradish peroxidase labeled mAb 4G8 (Biolegend). Synthetic Aβ1‐40 was used as standard. All ELISAs were developed with TMB substrate (KPL, Gaithersburg, Maryland, USA). Bis‐Tris precast gels (Biorad, Hercules, CA, USA) were used for all SDS–PAGE. Monoclonal anti‐FLAG M2 antibody (Sigma) and Aβ1‐16 antibody 6E10 (Covance) were used for Western blotting at 1:1,000 dilution. Anti‐CD74 In‐1 antibody (BD Bioscience, San Jose, CA, USA) was used for A20 cell lysate Western blotting at dilution of 1:1,000. MDA‐MB‐231 cell extracts were prepared by lysing cells in RIPA buffer containing protease and phosphatase inhibitors. The lysates were kept on ice for 30 min and vortexed every 10 min, and then centrifuged at 4°C for 10 min at 1,000 g. The supernatants were collected, and protein concentrations were determined by Bradford Assay. Pan‐NOTCH1 antibody (C‐20) (Santa Cruz Biotechnology) and cleaved NOTCH1 (Val1744) antibody ([…]) were used at 1:500 and 1:100 dilution in the test of endogenous NOTCH1 inhibition with β‐actin expression used as loading control. β‐actin antibody was used at 1:1,000 dilution (Sigma). Band intensities normalized for actin using densitometry analysis with ImageJ Software (NIH, USA).

[2] = molecular target: cNOTCH2sub (Homo sapiens, UniProt P49768); assay: Cell-based γ-secretase cleavage assay, cNOTCH2sub in H4 cells (Aβ-like peptide ELISA); settings: rank among the six GSIs, number in brackets
Procedure: as §1, §2, §3, §4

[3] = test system: cNOTCH3sub; assay: Cell-based γ-secretase cleavage assay, cNOTCH3sub in H4 cells (Aβ-like peptide ELISA); design: species or system human
Procedure: as §1, §2, §3, §4

[4] = test system: cNOTCH4sub; assay: Cell-based γ-secretase cleavage assay, cNOTCH4sub in H4 cells (Aβ-like peptide ELISA); design: species or system human; settings: Aβ-like peptide in media, GSI overnight
Procedure: as §1, §2, §3, §4

[5] = test system: APP; assay: Endogenous APP-CTF accumulation in MDA-MB-231 cells (Western blot); format: cell-based; settings: for APP CTF increase / APP CTF level / accumulation at 100 nM: MDA-MB-231 (231 cells), 100 nM, triplicate; for APP CTF increase: vs DMSO; for concentration from which APP‐CTF process is inhibited: MDA-MB-231, 16 h
Procedure: To extend the study to a more physiological system, we assessed endogenous NOTCH1 cleavage inhibition using the triple‐negative breast cancer line MDA‐MB‐231 (Fig 6A). Full‐length blots are shown in source data for Fig 6. NOTCH1 cleavage was detected by Western blotting using the Cell Signaling neo‐epitope NICD antibody. […] The inhibition of endogenous APP in MDA‐MB‐231 cells was also tested by detecting accumulation of APP COOH‐terminal fragments (APP‐CTFs). […] Figure 6D summarized the APP‐CTF band intensities normalized for DMSO group. The original blots are available in source data for Fig 6.
Values are mean ± SD of three tests. • APP‐CTF Western blot of MDA‐MB‐231 cells treated with indicated concentration of GSIs for 16 h. • Band intensities of APP‐CTF with 0.1 μM GSIs were normalized for DMSO control group. Values are mean ± SD of three tests. Data information: Original blots are provided as source data. All band intensity data are derived from three independent experiments and are analyzed by one‐way ANOVA using GraphPad Prism6 software. All experiments were repeated three times.Source data are available online for this figure.

[6] = Aβ-like peptide in media, GSI overnight, read-out: IC50 cNOTCH3sub
[7] = value in parentheses, read-out: IC50 cNOTCH3sub, from curves excluding the Aβ level > 120%

IC50 [3, 7] [nM] | SMILES | IC50 [1] [nM] | rank order of inhibition of cNOTCH2sub [2] | IC50 [3, 6] [nM] | IC50 [4] [nM] | APP CTF increase [5] [times] | concentration from which APP‐CTF process is inhibited [5] [nM] | effect on cNOTCH3sub cleavage at low concentrations [3] | APP CTF level / accumulation at 100 nM [5] | APP CTF level / accumulation at 100 nM ([5]; listed as MK) | concentration that significantly increases cleavage of the cNOTCH3sub ([3]; potentiation at low inhibitor concentration) [nM]
– | CN1C(=O)[C@@H](NC(=O)[C@H](CCC(F)(F)F)[C@H](CCC(F)(F)F)C(N)=O)N=C(c2ccccc2)c2ccccc21 [BMS‐906024] | 0.57 | [2] | 1.14 | 0.71 | > 15 | ≥ 20 | – | – | – | –
– | CCC[C@H](N[C@H]1CCc2cc(F)cc(F)c2C1)C(=O)Nc1cn(C(C)(C)CNCC(C)(C)C)cn1 [PF‐3084014] | 0.66 | [1] | 1.21 | 0.81 | > 15 | ≥ 20 | potentiates cleavage of NOTCH3 | – | – | –
6.93 | CC(C)(C(=O)NCC(F)(F)C(F)(F)F)C(=O)N[C@@H]1C(=O)Nc2ccccc2-c2ccccc21 [RO4929097] | 6.48 | [3] | 19.8 | 3.4 | > 15 | ≥ 20 | – | – | – | 0.5 to 2.5
129 | CC(C)[C@H](O)C(=O)N[C@@H](C)C(=O)N[C@@H]1C(=O)N(C)CCc2ccccc21 [Semagacestat] | 121 | [4] | 391 | 46 | – | ≥ 500 | potentiate | hard to see; also recorded: did not significantly increase CTF level | – | –

SMILES | IC50 [3, 7] [nM] | IC50 [1] [nM] | rank order of inhibition of cNOTCH2sub [2] | IC50 [3, 6] [nM] | IC50 [4] [nM] | APP CTF increase [5] [times] | concentration from which APP‐CTF process is inhibited [5] [nM] | effect on cNOTCH3sub cleavage at low concentrations [3] | APP CTF level / accumulation at 100 nM [5] | APP CTF level / accumulation at 100 nM ([5]; listed as MK) | concentration that significantly increases cleavage of the cNOTCH3sub ([3]; potentiation at low inhibitor concentration) [nM]
O=C(O)CC[C@H]1CC[C@@](c2cc(F)ccc2F)(S(=O)(=O)c2ccc(Cl)cc2)CC1 [MK‐0752] | 194 | – | [5] | 370 | 191 | – | ≥ 500 | increases cNOTCH3sub cleavage at low doses | hard to see | did not significantly increase CTF level | –

From PMC5494507, “γ‐Secretase inhibitors in cancer clinical trials are pharmacologically and functionally distinct” (EMBO Molecular Medicine, 2017)
